Molecular target: T1, HpBPL (Helicobacter pylori, UniProt B5Z8D8)
T1 construct: gene HPG27_1085
T1 sequence (B5Z8D8 1-212): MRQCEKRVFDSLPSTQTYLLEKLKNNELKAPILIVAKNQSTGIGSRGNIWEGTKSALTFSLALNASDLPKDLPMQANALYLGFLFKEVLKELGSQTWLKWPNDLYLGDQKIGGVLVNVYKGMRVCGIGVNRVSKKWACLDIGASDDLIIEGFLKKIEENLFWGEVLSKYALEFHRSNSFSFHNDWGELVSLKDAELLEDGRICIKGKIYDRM
Test: turnover to biotinyl-5-ATP seen in crystal structure
Type: biochemical
Settings: 10 min

Row | SMILES | turnover to biotinyl-5-ATP seen in crystal structure (6 mM ATP with 6 mM biotin and 6 mM MgCl2, 25 °C) | turnover to biotinyl-5-ATP seen in crystal structure (6 mM biotin with 6 mM ATP and 6 mM MgCl2, 25 °C)
1 | Nc1ncnc2c1ncn2[C@@H]1O[C@H](COP(=O)(O)OP(=O)(O)OP(=O)(O)O)[C@@H](O)[C@H]1O [ATP] | catalytically active and generates biotinyl-5-ATP upon incubation with MgCl2, ATP and biotin | –
2 | O=C(O)CCCC[C@@H]1SC[C@@H]2NC(=O)N[C@@H]21 [biotin] | – | catalytically active and generates biotinyl-5-ATP upon incubation with MgCl2, ATP and biotin
